Common to all, as to format: in vivo, mice
One experiment concerns E0771 tumors. The experiment in a line: Extracellular matrix staining (Picro Sirius red collagen, HABP immunofluorescence). As for the experimental part:
Mice bearing syngeneic, orthotopic triple negative breast cancer (TNBC) were treated with a range of sub-therapeutic doses of bosentan, from 0.2 mg/kg to 10 mg/kg of body weight. Orthotopic models for murine mammary tumors were generated by implantation of 5×10^4 4T1 or E0771 cancer cells in 40 μl of serum-free medium into the third mammary fat pad of 6-8-week-old BALB/c and C57BL/6 female mice, respectively. 4T1 (ATCC® CRL-2539TH) and E0771 (94A001, CH3 BioSystems) mouse breast adenocarcinoma cell lines were purchased form ATCC and CH3 BioSystems, respectively. The cells were maintained at 37° C./5% CO2 in Roswell Park Memorial Institute medium (RPMI-1640, LM-R1637, Biosera) supplemented with 10% fetal bovine serum (FBS, FB-1001H, biosera) and 1% antibiotics (A5955, Sigma). Bosentan (bosentan Hydrate (S3051, Selleckchem) was dissolved in ddH2O containing 2% DMSO (GK2245, Glentham Life Science), 30% PEG300 (S6704, Selleckchem) and 2% Tween 80 (S6702, Selleckchem)) 1 mg/kg, 5 mg/kg, 10 mg/kg or equal volume of diluent (control group) was administered by intraperitoneal injection (i.p.) once a day for 10 days, starting from once the tumor volumes reached an average size of 100 mm^3. Tumors were excised when they reached an average size of 500 mm^3. Tissue stiffness was then measured non-invasively and longitudinally using ultrasound elastography. […]

The test system of experiment [1] is orthotopic E0771 breast tumors. The experiment in a line: Pimonidazole hypoxia staining. The conditions noted are these: 1 mg/kg; E0771 (FIG. 2A). As for the experimental part: Because reducing collagen I levels and tissue stiffness decompresses vessels, it was hypothesized that hypoxia, which is an indicator of decreased blood flow to the tumor, would be reduced with bosentan treatment. […] For the hypoxia studies, Mice bearing orthotopic E0771 or 4T1 breast tumors were injected (intraperitoneal) with 60 mg/kg of pimonidazole HCl at 2 hr prior to tumor removal. Prior to tumors excision, animals were anesthetized via Avertin (200 mg/kg, intraperitoneal). Primary tumors were then excised, fixed in 4% PFA, embedded in OCT and processed accordingly for IHC. Hypoxic regions were detected using the mouse anti-pimonidazole RED 549 conjugate antibody (HP7-100Kit, 1:100). Hypoxic area fraction across different treatment groups was normalized to DAPI staining. For fluorescent immunohistochemistry, tumors were removed, washed twice in 1× PBS for 10 min and incubated with 4% PFA overnight at 4° C. The fixative was aspirated, and samples washed twice in 1× PBS for 10 min. Fixed tissues were embedded in optimal cutting temperature compound in cryomolds (Tissue-Tek) and frozen completely at −20° C. […] CD31 signal was detected with Alexa Fluor-488 anti-rabbit IgG (H+L) and CD3 signal with Alexa Fluor-647 anti-rat IgG (H+L) secondary antibodies. Tumor associated T cell and vessel content was determined by the CD31 and CD3 area fraction normalized to DAPI staining. […]

A further experiment relates to 4T1 tumors. The experiment in a line: CD3/CD31 immunofluorescence: T cell proximity to endothelial cells and area fractions. As for the experimental part: Because reducing collagen I levels and tissue stiffness decompresses vessels, it was hypothesized that hypoxia, which is an indicator of decreased blood flow to the tumor, would be reduced with bosentan treatment. […] For the hypoxia studies, Mice bearing orthotopic E0771 or 4T1 breast tumors were injected (intraperitoneal) with 60 mg/kg of pimonidazole HCl at 2 hr prior to tumor removal. Prior to tumors excision, animals were anesthetized via Avertin (200 mg/kg, intraperitoneal). Primary tumors were then excised, fixed in 4% PFA, embedded in OCT and processed accordingly for IHC. Hypoxic regions were detected using the mouse anti-pimonidazole RED 549 conjugate antibody (HP7-100Kit, 1:100). Hypoxic area fraction across different treatment groups was normalized to DAPI staining. For fluorescent immunohistochemistry, tumors were removed, washed twice in 1× PBS for 10 min and incubated with 4% PFA overnight at 4° C. The fixative was aspirated, and samples washed twice in 1× PBS for 10 min. Fixed tissues were embedded in optimal cutting temperature compound in cryomolds (Tissue-Tek) and frozen completely at −20° C. Transverse 30 μm thick tumor sections were produced using the Tissue-Tek Cryo3 (SAKURA). Positively charged HistoBond microscope slides (Marienfeld) were used to bond four tissue sections per tumor. Tumor sections were then incubated in blocking solution (10% fetal bovine serum, 3% donkey serum, 1× PBS) for 2h and immunostained with the following primary antibodies; rabbit anti-Collagen I (ab4710, Abcam 1:100), rabbit anti-CD31 (ab28364, Abcam 1:50), rat anti-CD3 (17A2, BioLegend 1:50) and aSMA (ab5694, Abcam 1:50) overnight at 4° C. Secondary antibodies against rabbit, mouse or rat conjugated to Alexa Fluor 488 or 647 (Invitrogen) were used at 1:400 dilution. […] CD31 signal was detected with Alexa Fluor-488 anti-rabbit IgG (H+L) and CD3 signal with Alexa Fluor-647 anti-rat IgG (H+L) secondary antibodies. Tumor associated T cell and vessel content was determined by the CD31 and CD3 area fraction normalized to DAPI staining. […]

In the case of `COc1ccccc1Oc1c(NS(=O)(=O)c2ccc(C(C)(C)C)cc2)nc(-c2ncccn2)nc1OCCO` [bosentan, 4-tert-butyl-N-[6-(2-hydroxy-ethoxy)-5-(2-methoxy-phenoxy)-2-(pyrimidin-2-yl)pyrimidin-4-yl] benzenesulfonamide], the “collagen levels (Picro Sirius red staining)” value in the experiment with E0771 tumors is “reduction of collagen levels”. The “hypoxia (pimonidazole staining)” value in experiment [1] was “reduced hypoxia”. Moreover, in the experiment with 4T1 tumors, the “T cells colocalizing with endothelial cells (CD3+/CD31+ proximity)” value was “more T cells colocalizing with endothelial cells”, the “area fraction of CD3+ staining” value is “no change” and the “area fraction of CD31+ staining” value was “no change”.

These data come from patent publication US20240024317A1, “CANCER TREATMENT USING BOSENTAN IN COMBINATION WITH A CHECKPOINT INHIBITOR” (Materia Therapeutics Inc., priority 2020, published 2024).
